Details of series [1]: method as in PMID 27079428. To be noted: cited from earlier work.
A short description of series [2]: Human liver microsome stability assay. The format is in vitro ADME. Conditions: human liver microsomes, 1 μM, 37 °C; CLint = k/P. For orientation: Microsomes from liver hold many membrane-bound enzymes, among them those of drug oxidation.

The structures appear in SMILES notation.

For `[2H]C([2H])([2H])Oc1cc2c(cc1OC([2H])([2H])[2H])C1CC(=O)C(CC(C)C)CN1CC2` (stereo not drawn) [deutetrabenazine], the t1/2 in series [1] is 8.6 h.
In the case of `COc1cc2c(cc1OC)C1CC(=O)C(CC(C)C)CN1CC2` (stereo not drawn) [tetrabenazine], the t1/2 in series [1] is 4.8 h.
Consider `C[C@]12CC[C@H]3[C@@H](CCC4=CC(=O)CC[C@@]43C)[C@@H]1CC[C@@H]2O` [Testosterone, testosterone, reference compound], for which the “CLint (intrinsic clearance)” value in series [2] came to 0.0727 mL/min/mg Protein.

These data come from PMC6150239 (Molecules : A Journal of Synthetic Chemistry and Natural …, 2017).
